Reference: patent US8293704B2, “Crystalline form of linaclotide” (priority 2009, dated 2012)
Bridge positions count the residues as written; N and C are the ends. Peptide text beside a SMILES is read from it.

Experiment: Solid-state chemical stability of amorphous and α-crystalline linaclotide (HPLC assay after storage at 40° C./75% RH)
Format: physicochemical
Conditions: for Degradation Products / Normalized Assay / Acetylation Product / Hydrolysis Product / Non-disulfide linked multimers / Water-Mediated Products: induction sealed 45 cc HDPE bottles; for Remaining fraction (not assay, not degradation products), may comprise multimers: 3 months at 40° C./75% RH
Protocol: The relative chemical purity and stability of amorphous and crystalline linaclotide was studied using reverse phase high performance liquid chromatography (HPLC). The chemical identification was conducted using reverse phase high performance liquid chromatography coupled with mass spectroscopy (HPLC-MS). The mass spectroscopic analysis was performed at Enhance MS scan (EMS) mode with positive ionization and a scan range (m/z) of 600-1600.
A Perkin Elmer series 200 LC instrument (Perkin Elmer, Waltham, Mass.) was used with a YMC Pro C18 column (150 mm×3.0 mm, 3 μm) (Waters Corporation, Milford, Mass.). The column temperature was set at 40° C. while the auto sampler temperature was maintained at 4° C. using a peltier tray. The injection volume was 50 μl. A gradient (0.6 ml/minute) run was used comprising of two solvents; A (97.9% Water, 2% Acetonitrile, 0.1% Trifluoroacetic Acid) and B (94.9% Acetonitrile, 5% Water, 0.1% Trifluoroacetic Acid). The gradient was set according to the scheme described in Table 10. The effluent was detected at 220 nm using a UV detector.
The solid-state chemical stability of the α-crystalline form of linaclotide was then compared to that of amorphous form linaclotide. Known quantities of test materials were placed in 45 cc high-density polyethylene bottles. The bottles were induction sealed and placed in 40° C./75% RH stability chamber. Two bottles were then withdrawn at the time points of 2 weeks, at 1 month, at 2 months, and at 3 months, and were analyzed after adequate dilution for assay.

[1] = 3 months storage, 40° C./75% RH

C[C@@H]1NC(=O)[C@@H]2CCCN2C(=O)[C@H](CC(N)=O)NC(=O)[C@@H]2CSSC[C@H](N)C(=O)N[C@H]3CSSC[C@H](NC1=O)C(=O)N[C@@H]([C@@H](C)O)C(=O)NCC(=O)N[C@H](C(=O)N[C@@H](Cc1ccc(O)cc1)C(=O)O)CSSC[C@H](NC(=O)[C@H](Cc1ccc(O)cc1)NC(=O)[C@H](CCC(=O)O)NC3=O)C(=O)N2 [Amorphous Linaclotide, linaclotide] (H-CCEYCCNPACTGCY-OH; disulfide 1-6, 2-10, 5-13)
Degradation Products (1 Month at 40° C./75% RH): 5.6 Wt % | Normalized Assay (1 Month at 40° C./75% RH): 79.1 Wt % | Degradation Products (2 Months at 40° C./75% RH): 9.3 Wt % | Normalized Assay (2 Months at 40° C./75% RH): 74.5 Wt % | Degradation Products (2 Weeks at 40° C./75% RH): 3.6 Wt % | Normalized Assay (2 Weeks at 40° C./75% RH): 84.0 Wt % | Degradation Products (3 Months at 40° C./75% RH): 12.0 Wt % | Normalized Assay (3 Months at 40° C./75% RH): 68.8 Wt % | Remaining fraction (not assay, not degradation products), may comprise multimers: 19.2% | Acetylation Product [1]: 2.39 Wt % | Hydrolysis Product [1]: 0.30 Wt % | Non-disulfide linked multimers [1]: 1.96 Wt % | Water-Mediated Products [1]: 7.00 Wt % | Degradation Products (Initial, solid state): 2.1 Wt % | Normalized Assay (Initial, solid state): 100.0 Wt %

C[C@@H]1NC(=O)[C@@H]2CCCN2C(=O)[C@H](CC(N)=O)NC(=O)[C@@H]2CSSC[C@H](N)C(=O)N[C@H]3CSSC[C@H](NC1=O)C(=O)N[C@@H]([C@@H](C)O)C(=O)NCC(=O)N[C@H](C(=O)N[C@@H](Cc1ccc(O)cc1)C(=O)O)CSSC[C@H](NC(=O)[C@H](Cc1ccc(O)cc1)NC(=O)[C@H](CCC(=O)O)NC3=O)C(=O)N2 [α-Crystalline Linaclotide, linaclotide] (H-CCEYCCNPACTGCY-OH; disulfide 1-6, 2-10, 5-13)
Degradation Products (1 Month at 40° C./75% RH): 3.8 Wt % | Normalized Assay (1 Month at 40° C./75% RH): 91.9 Wt % | Degradation Products (2 Months at 40° C./75% RH): 5.1 Wt % | Normalized Assay (2 Months at 40° C./75% RH): 89.7 Wt % | Degradation Products (2 Weeks at 40° C./75% RH): 2.6 Wt % | Normalized Assay (2 Weeks at 40° C./75% RH): 94.8 Wt % | Degradation Products (3 Months at 40° C./75% RH): 7.5 Wt % | Normalized Assay (3 Months at 40° C./75% RH): 88.4 Wt % | Remaining fraction (not assay, not degradation products), may comprise multimers (listed as α-form linaclotide): 4.1% | Acid-induced hydrolysis (in words) [1]: pronounced | Acetylation Product [1]: 0.31 Wt % | Hydrolysis Product [1]: 5.70 Wt % | Non-disulfide linked multimers [1]: 0.07 Wt % | Water-Mediated Products [1]: 0.40 Wt % | Concentration of degradation products compared with amorphous linaclotide (in words) (40° C./75% RH, up to 3 months): significantly lower concentration of degradation products | Multimer formation compared with amorphous linaclotide (in words) (40° C./75% RH, up to 3 months): significantly less multimer formation | Stability profile compared with amorphous linaclotide (in words) (40° C./75% RH, up to 3 months): substantially better stability profile than amorphous linaclotide | Degradation Products (Initial, solid state): 2.4 Wt % | Normalized Assay (Initial, solid state): 100.0 Wt %
